# Data as given in patent publication US20170190671A1, “BIS(ARYL)CATECHOL DERIVATIVES AS HERBICIDES” (E I DU PONT DE NEMOURS AND COMPANY, priority 2014, published 2017).
# Legend:
# Format in all cases: in vivo
# rice (Oryza sativa) = assay: Test B flooded paddy; conditions: 250 g ai/ha, Flood, 13 to 15 days, scale 0 (no effect) to 100 (complete control)
# Description: (§1) At time of treatment, test pots were flooded to 3 cm above the soil surface, treated by application of test compounds directly to the paddy water, and then maintained at that water depth for the duration of the test. Treated plants and controls were maintained in a greenhouse for 13 to 15 days, after which time all species were compared to controls and visually evaluated. […] A dash (-) response means no test result.
# [1] = tested on: sedge, umbrella (small-flower umbrella sedge, Cyperus difformis); assay: Test B flooded paddy; conditions: 250 g ai/ha, Flood, 13 to 15 days, scale 0 (no effect) to 100 (complete control)
# Description: as §1
# [2] = tested on: ducksalad (Heteranthera limosa); assay: Test B flooded paddy; conditions: 250 g ai/ha, Flood, 13 to 15 days, scale 0 (no effect) to 100 (complete control)
# Description: as §1
# [3] = tested on: barnyardgrass (Echinochloa crus-galli); assay: Test B flooded paddy; conditions: 250 g ai/ha, Flood, 13 to 15 days, scale 0 (no effect) to 100 (complete control)
# Description: as §1
# kochia (Kochia scoparia) [4] = assay: Test A postemergence; conditions: 0 to 100 scale
# Method in brief: (§2)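 Scoring: eye-based comparison with untreated controls, 0 for no effect through 100 for complete control, at about day 10. Treatments: directed soil spray preemergence; foliar spray postemergence on 2–10 cm plants at the one- to two-leaf stage. Medium: loam soil with sand.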
# [5] = tested on: ragweed (common ragweed, Ambrosia elatior); assay: Test A postemergence; conditions: 0 to 100 scale
# Method in brief: as §2
# [6] = tested on: wheat (Triticum aestivum); assay: Test A postemergence; conditions: 0 to 100 scale
# Method in brief: as §2
# [7] = tested on: galium (catchweed bedstraw, Galium aparine); assay: Test A postemergence; conditions: 0 to 100 scale
# Method in brief: as §2
# corn (Zea mays) = assay: Test A postemergence; conditions: 0 to 100 scale
# Method in brief: as §2
# [8] = tested on: giant foxtail (Setaria faberii); assay: Test A postemergence; conditions: 0 to 100 scale
# Method in brief: as §2
# [9] = tested on: blackgrass (Alopecurus myosuroides); assay: Test A postemergence; conditions: 0 to 100 scale
# Method in brief: as §2
# [10] = tested on: Italian ryegrass (Lolium multiflorum); assay: Test A postemergence; conditions: 0 to 100 scale
# Method in brief: as §2
# [11] = tested on: pigweed (Amaranthus retroflexus); assay: Test A postemergence; conditions: 0 to 100 scale
# Method in brief: as §2
# [12] = tested on: barnyardgrass (Echinochloa crus-galli); assay: Test A postemergence; conditions: 0 to 100 scale
# Method in brief: as §2
# kochia (Kochia scoparia) [13] = assay: Test A preemergence; conditions: 0 to 100 scale (0 no effect, 100 complete control)
# Method in brief: as §2
# [14] = tested on: ragweed (common ragweed, Ambrosia elatior); assay: Test A preemergence; conditions: 0 to 100 scale (0 no effect, 100 complete control)
# Method in brief: as §2
# [15] = tested on: giant foxtail (Setaria faberii); assay: Test A preemergence; conditions: 0 to 100 scale (0 no effect, 100 complete control)
# Method in brief: as §2
# [16] = tested on: Italian ryegrass (Lolium multiflorum); assay: Test A preemergence; conditions: 0 to 100 scale (0 no effect, 100 complete control)
# Method in brief: as §2
# [17] = tested on: pigweed (Amaranthus retroflexus); assay: Test A preemergence; conditions: 0 to 100 scale (0 no effect, 100 complete control)
# Method in brief: as §2
# [18] = tested on: barnyardgrass (Echinochloa crus-galli); assay: Test A preemergence; conditions: for Barnyardgrass plant response rating: 0 to 100 scale (0 no effect, 100 complete control); for Plant response rating, Barnyardgrass: 0 to 100 scale
# Method in brief: as §2
Compound,"Plant response rating, Rice (rice (Oryza sativa))","Plant response rating, Sedge, Umbrella [1]","Plant response rating, Ducksalad [2]","Plant response rating, Barnyardgrass [3]","Plant response rating, Kochia (kochia (Kochia scoparia) [4]; 31 g ai/ha)","Plant response rating, Kochia (kochia (Kochia scoparia) [4]; 125 g ai/ha)","Plant response rating, Ragweed ([5]; 31 g ai/ha)","Plant response rating, Ragweed ([5]; 125 g ai/ha)","Plant response rating, Wheat ([6]; 31 g ai/ha)","Plant response rating, Wheat ([6]; 125 g ai/ha)","Plant response rating, Galium ([7]; 31 g ai/ha)","Plant response rating, Galium ([7]; 125 g ai/ha)","Plant response rating, Corn (corn (Zea mays); 31 g ai/ha)","Plant response rating, Corn (corn (Zea mays); 125 g ai/ha)","Plant response rating, Foxtail, Giant ([8]; 31 g ai/ha)","Plant response rating, Foxtail, Giant ([8]; 125 g ai/ha)","Plant response rating, Blackgrass ([9]; 31 g ai/ha)","Plant response rating, Blackgrass ([9]; 125 g ai/ha)","Plant response rating, Ryegrass, Italian ([10]; 31 g ai/ha)","Plant response rating, Ryegrass, Italian ([10]; 125 g ai/ha)",further results
Fc1ccc(F)c(Oc2ncc(C(F)(F)F)cn2)c1Oc1ncc(C(F)(F)F)cn1 [Compound 30],0,0,0,0,0,0,0,0,0,0,60,70,0,0,0,10,0,30,0,0,"Plant response rating, Pigweed ([11]; 31 g ai/ha): 60; Plant response rating, Pigweed ([11]; 125 g ai/ha): 70; Plant response rating, Barnyardgrass ([12]; 31 g ai/ha): 0; Plant response rating, Barnyardgrass ([12]; 125 g ai/ha): 0; Kochia plant response rating (kochia (Kochia scoparia) [13]; 31 g ai/ha): 10; Kochia plant response rating (kochia (Kochia scoparia) [13]; 125 g ai/ha): 20; Ragweed plant response rating ([14]; 31 g ai/ha): 0; Ragweed plant response rating ([14]; 125 g ai/ha): 0; Foxtail, Giant plant response rating ([15]; 31 g ai/ha): 10; Foxtail, Giant plant response rating ([15]; 125 g ai/ha): 50; Ryegrass, Italian plant response rating ([16]; 31 g ai/ha): 0; Ryegrass, Italian plant response rating ([16]; 125 g ai/ha): 0; Pigweed plant response rating ([17]; 31 g ai/ha): 90; Pigweed plant response rating ([17]; 125 g ai/ha): 100; Barnyardgrass plant response rating ([18]; 31 g ai/ha): 0; Plant response rating, Barnyardgrass ([18]; 125 g ai/ha): 10"
N#Cc1cccc(Oc2ncc(Cl)cn2)c1Oc1ccc(OC(F)(F)F)cc1 [Compound 33],0,0,0,0,20,40,0,10,0,0,10,30,0,10,10,20,0,10,0,10,"Plant response rating, Pigweed ([11]; 31 g ai/ha): 30; Plant response rating, Pigweed ([11]; 125 g ai/ha): 80; Plant response rating, Barnyardgrass ([12]; 31 g ai/ha): 0; Plant response rating, Barnyardgrass ([12]; 125 g ai/ha): 10; Kochia plant response rating (kochia (Kochia scoparia) [13]; 31 g ai/ha): 0; Kochia plant response rating (kochia (Kochia scoparia) [13]; 125 g ai/ha): 0; Ragweed plant response rating ([14]; 31 g ai/ha): 0; Ragweed plant response rating ([14]; 125 g ai/ha): 0; Foxtail, Giant plant response rating ([15]; 31 g ai/ha): 10; Foxtail, Giant plant response rating ([15]; 125 g ai/ha): 40; Ryegrass, Italian plant response rating ([16]; 31 g ai/ha): 0; Ryegrass, Italian plant response rating ([16]; 125 g ai/ha): 0; Pigweed plant response rating ([17]; 31 g ai/ha): 0; Pigweed plant response rating ([17]; 125 g ai/ha): 30; Barnyardgrass plant response rating ([18]; 31 g ai/ha): 0; Plant response rating, Barnyardgrass ([18]; 125 g ai/ha): 10"
N#Cc1cccc(Oc2ncc(C(F)(F)F)cn2)c1Oc1ncc(C(F)(F)F)cn1 [Compound 35],40,60,60,0,60,90,10,20,0,0,40,70,0,30,0,20,10,50,0,30,"Plant response rating, Pigweed ([11]; 31 g ai/ha): 70; Plant response rating, Pigweed ([11]; 125 g ai/ha): 100; Plant response rating, Barnyardgrass ([12]; 31 g ai/ha): 0; Plant response rating, Barnyardgrass ([12]; 125 g ai/ha): 40; Kochia plant response rating (kochia (Kochia scoparia) [13]; 31 g ai/ha): 0; Kochia plant response rating (kochia (Kochia scoparia) [13]; 125 g ai/ha): 60; Ragweed plant response rating ([14]; 31 g ai/ha): 0; Ragweed plant response rating ([14]; 125 g ai/ha): 10; Foxtail, Giant plant response rating ([15]; 31 g ai/ha): 30; Foxtail, Giant plant response rating ([15]; 125 g ai/ha): 90; Ryegrass, Italian plant response rating ([16]; 31 g ai/ha): 0; Ryegrass, Italian plant response rating ([16]; 125 g ai/ha): 10; Pigweed plant response rating ([17]; 31 g ai/ha): 100; Pigweed plant response rating ([17]; 125 g ai/ha): 100; Barnyardgrass plant response rating ([18]; 31 g ai/ha): 0; Plant response rating, Barnyardgrass ([18]; 125 g ai/ha): 50"
"Fc1ccc(Oc2ccc(C(F)(F)F)cn2)c(Oc2ncc(Cl)cn2)c1 [Compound 45, 5-chloro-2-[5-fluoro-[2-[5-(trifluoromethyl)pyridin-2-yl]oxy]phenoxy]pyrimidine]",0,70,75,0,20,80,0,20,0,20,60,70,0,30,0,0,0,30,0,0,"Plant response rating, Pigweed ([11]; 31 g ai/ha): 20; Plant response rating, Pigweed ([11]; 125 g ai/ha): 20; Plant response rating, Barnyardgrass ([12]; 31 g ai/ha): 0; Plant response rating, Barnyardgrass ([12]; 125 g ai/ha): 0; Kochia plant response rating (kochia (Kochia scoparia) [13]; 31 g ai/ha): 0; Kochia plant response rating (kochia (Kochia scoparia) [13]; 125 g ai/ha): 10; Ragweed plant response rating ([14]; 31 g ai/ha): 0; Ragweed plant response rating ([14]; 125 g ai/ha): 10; Foxtail, Giant plant response rating ([15]; 31 g ai/ha): 30; Foxtail, Giant plant response rating ([15]; 125 g ai/ha): 100; Ryegrass, Italian plant response rating ([16]; 31 g ai/ha): 0; Ryegrass, Italian plant response rating ([16]; 125 g ai/ha): 0; Pigweed plant response rating ([17]; 31 g ai/ha): 0; Pigweed plant response rating ([17]; 125 g ai/ha): 0; Barnyardgrass plant response rating ([18]; 31 g ai/ha): 0; Barnyardgrass plant response rating ([18]; 125 g ai/ha): 30"
